Experimental findings from paper PMC7531004, “Discovery of gramicidin A analogues with altered activities by multidimensional screening of a one-bead-one-compound library” (Nature Communications, 2020) are described below.

Data set [1] is described as follows: H+/Na+ transport assay of bead-derived peptides (one-point).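 Further: relative to parent gramicidin A activity set to 1.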 In kind it is biochemical. Details: key: relative activity; mean of two control wells = 1.00. The settings on record: bead-derived peptide solution, EYPC/EYPG LUVs. The gist of the method: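 One-point screen: peptide + pyranine-loaded LUVs, 30 min RT with vortexing, 96-well. Read-out is fluorescence intensity scaled as 100 × (Ix – I0)/(Imax – I0). Imax from Triton X-100, I0 from untreated vesicles, and the mean of the two control wells is set to 1.00.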

The subject of data set [2] is P388 mouse leukemia cells. The settings on record: 92 h. The gist of the method: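 Peptide stocks diluted 250× in growth medium; P388 cells 1 × 10^4 cells/mL final; 37 °C, 5% CO2, 92 h. WST-1 + 1-methoxy PMS, 4 h, A415. Output: % viability.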
For data set [3], the system named is Streptococcus pyogenes SSI-9. Description: Antibacterial activity assay of bead-derived peptides (three concentrations). The note with it: S. pyogenes, bead-derived peptide solution, three concentrations. Further details: key: +++: inhibition by the 640-fold diluted peptide solution; ++: inhibition by the 160-fold diluted solution; +: inhibition by the 40-fold diluted solution; -: no inhibition. In kind it is cell-based. In outline: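 Growth inhibition scored visually as precipitated bacteria after 37 °C, 18 h incubation. Streptococcus pyogenes SSI-9 inoculum of 2 × 10^5 CFU in Ca2+/Mg2+-adjusted Mueller Hinton broth plus 5% laked horse blood; peptides tested at three levels: stock, 4-fold and 16-fold DMSO dilutions.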

Where a SMILES comes first, the peptide text is derived from it. [ ]: non-standard residue; d: D form. The star is where a group is joined. NHCH2CH2OH = OCCN*; For = O=C*

On to `CNC(=O)C[C@@H](NC(=O)[C@@H](NC(=O)[C@H](NC(=O)[C@H](C)NC(=O)[C@H](NC(=O)[C@H](C)NC(=O)CNC(=O)[C@@H](NC=O)C(C)C)C(C)C)C(C)C)C(C)C)C(=O)N[C@@H](Cc1c[nH]c2ccccc12)C(=O)N[C@@H](C(=O)N[C@@H](Cc1c[nH]c2ccccc12)C(=O)N[C@H](CC(C)C)C(=O)N[C@@H](Cc1c[nH]c2ccccc12)C(=O)N[C@H](CC(C)C)C(=O)N[C@@H](Cc1c[nH]c2ccccc12)C(=O)NCCO)C(C)C` [compound 4049] (For-VGA[dV]A[dV]V[dD](NHMe)W[dV]W[dL]W[dL]W-NHCH2CH2OH), for which the “H+/Na+ transport activity normalized against the value of 1 (1.00)” value (“H+/Na+ transport activity normalized” below) in data set [1] is reported as 1.15. In data set [2], this compound yielded a cell viability/% of 100.0%. The antibacterial activity entry in data set [3] is listed as “-”.

Consider `CC(C)C[C@@H](NC(=O)[C@H](C)NC(=O)CNC(=O)[C@@H](NC=O)C(C)C)C(=O)N[C@@H](C)C(=O)N[C@@H](C(=O)N[C@H](C(=O)N[C@H](CC(C)C)C(=O)N[C@@H](Cc1c[nH]c2ccccc12)C(=O)N[C@@H](C(=O)N[C@@H](Cc1c[nH]c2ccccc12)C(=O)N[C@@H](C(=O)N[C@@H](Cc1c[nH]c2ccccc12)C(=O)N[C@@H](C(=O)N[C@@H](Cc1c[nH]c2ccccc12)C(=O)NCCO)[C@H](C)O)C(C)C)C(C)C)C(C)C)C(C)C` [compound 12984] (For-VGA[dL]A[dV]V[dL]W[dV]W[dV]W[dT]W-NHCH2CH2OH), for which, in data set [1], the “H+/Na+ transport activity normalized” value turned out to be 1.08. The same compound gave a cell viability/% in data set [2] of 81.1%. Further, in data set [3], the antibacterial activity entry is reported as “-”.

Turning to `CC(C)C[C@@H](NC(=O)[C@H](Cc1c[nH]c2ccccc12)NC(=O)[C@H](NC(=O)[C@H](Cc1c[nH]c2ccccc12)NC(=O)[C@H](NC(=O)[C@H](Cc1c[nH]c2ccccc12)NC(=O)[C@@H](CC(C)C)NC(=O)[C@@H](NC(=O)[C@H](NC(=O)[C@H](C)NC(=O)[C@H](NC(=O)[C@H](C)NC(=O)CNC(=O)[C@@H](NC=O)C(C)C)C(C)C)C(C)C)C(C)C)C(C)C)[C@H](C)O)C(=O)N[C@@H](Cc1c[nH]c2ccccc12)C(=O)NCCO` [compound 8633] (For-VGA[dV]A[dV]V[dL]W[dV]W[dT]W[dL]W-NHCH2CH2OH), in data set [1], the “H+/Na+ transport activity normalized” value came out at 1.00. In addition, the cell viability/% in data set [2] was found to be 61.8%. For the same compound, the antibacterial activity entry in data set [3] was “-”.

With `CC(C)C[C@@H](NC(=O)[C@H](C)NC(=O)CNC(=O)[C@@H](NC=O)C(C)C)C(=O)N[C@@H](C)C(=O)N[C@H](CC(C)C)C(=O)N[C@H](C(=O)N[C@@H](C(=O)N[C@@H](Cc1c[nH]c2ccccc12)C(=O)N[C@H](CC(C)C)C(=O)N[C@@H](Cc1c[nH]c2ccccc12)C(=O)N[C@H](CC(C)C)C(=O)N[C@@H](Cc1c[nH]c2ccccc12)C(=O)N[C@@H](C(=O)N[C@@H](Cc1c[nH]c2ccccc12)C(=O)NCCO)C(C)C)[C@H](C)O)C(C)C` [compound 11295] (For-VGA[dL]A[dL]V[dT]W[dL]W[dL]W[dV]W-NHCH2CH2OH), the “H+/Na+ transport activity normalized” value in data set [1] stood at 1.12. Besides, in data set [2], the cell viability/% is on record as 78.1%. The antibacterial activity result in data set [3] is on record as “-”.

On to `CNC(=O)C[C@@H](NC(=O)[C@@H](NC(=O)[C@H](NC(=O)[C@H](C)NC(=O)[C@H](NC(=O)[C@H](C)NC(=O)CNC(=O)[C@@H](NC=O)C(C)C)C(C)C)C(C)C)C(C)C)C(=O)N[C@@H](Cc1c[nH]c2ccccc12)C(=O)N[C@H](CC(C)C)C(=O)N[C@@H](Cc1c[nH]c2ccccc12)C(=O)N[C@H](CC(C)C)C(=O)N[C@@H](Cc1c[nH]c2ccccc12)C(=O)N[C@H](CC(C)C)C(=O)N[C@@H](Cc1c[nH]c2ccccc12)C(=O)NCCO` [compound 2218] (For-VGA[dV]A[dV]V[dD](NHMe)W[dL]W[dL]W[dL]W-NHCH2CH2OH), for which the “H+/Na+ transport activity normalized” value in data set [1] stood at 1.32. Also, in data set [2], the cell viability/% was 100.0%. In addition, the antibacterial activity result in data set [3] is recorded as “-”.
